# Target: T1, NA transporter (Rattus norvegicus, UniProt Q9WTR4)
# T1 construct: synaptosomes were freshly isolated from rat brain regions; from tissue; host or cells: rat hypothalamus synaptosomes (P2 fraction)
# Assay: Noradrenaline reuptake inhibition (NA uptake inhibition) in rat brain synaptosomes
# Type: biochemical
# Conditions: test concentration of 10^−5 M; synaptosomes (P2 fraction) from the hypothalamus of male rat brains
# Method: Investigations Relating to Noradrenaline Reuptake Inhibition (NA Uptake Inhibition)
# The compounds according to the invention are NA uptake inhibitors. In order to be able to carry out these in vitro studies, synaptosomes were freshly isolated from rat brain regions. A so-called “P2” fraction was used, which was prepared according to the instructions given by Gray and Whittaker (E. G. Gray and V. P. Whittaker (1962) J. Anat. 76, 79-88). For NA uptake, these vesicular particles were isolated from the hypothalamus of male rat brains.
# The following characteristics were determined for the NA transporter: NA uptake: Km=0.32±0.11 μM (In each case N=4, i.e. means±SEM from 4 independent series of tests, which were performed as parallel tests in triplicate).
# A detailed description of the method may be found in the literature (M. Ch. Frink, H.-H. Hennies, W. Englberger, M. Haurand and B. Wilffert (1996) Arzneim.-Forsch./Drug Res. 46 (III), 11, 1029-1036). The NA uptake inhibition of selected compounds was determined. The values were determined at a test concentration of 10^−5 M.
# T1 sequence (Q9WTR4 1-597): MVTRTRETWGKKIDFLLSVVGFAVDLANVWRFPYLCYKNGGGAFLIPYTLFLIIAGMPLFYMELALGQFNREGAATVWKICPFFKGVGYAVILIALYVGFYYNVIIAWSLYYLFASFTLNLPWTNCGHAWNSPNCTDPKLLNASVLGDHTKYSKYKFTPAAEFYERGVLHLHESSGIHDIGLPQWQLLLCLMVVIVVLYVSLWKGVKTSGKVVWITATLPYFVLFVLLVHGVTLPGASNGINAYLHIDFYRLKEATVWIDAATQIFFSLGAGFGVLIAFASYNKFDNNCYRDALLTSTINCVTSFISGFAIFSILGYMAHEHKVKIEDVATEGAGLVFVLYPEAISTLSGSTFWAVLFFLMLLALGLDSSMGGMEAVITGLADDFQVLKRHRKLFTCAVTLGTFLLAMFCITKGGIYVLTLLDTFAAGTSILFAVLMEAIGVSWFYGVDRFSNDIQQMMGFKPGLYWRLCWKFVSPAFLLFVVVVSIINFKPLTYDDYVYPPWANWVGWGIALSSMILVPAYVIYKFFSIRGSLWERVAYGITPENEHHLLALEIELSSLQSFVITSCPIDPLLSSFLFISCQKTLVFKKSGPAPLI
smiles,measurement,value
"OC1(c2cccc(Cl)c2Cl)CCCCCC1CN1CCCC1 (stereo not shown) [1-(2,3-Dichloro-phenyl)-2-pyrrolidin-1-ylmethyl-cycloheptanol]",inhibition at 10 µM,63%
"OC1(c2cccc(Cl)c2Cl)CCCCC1CN1CCCC1 (stereo not shown) [1-(2,3-Dichloro-phenyl)-2-pyrrolidin-1-ylmethyl-cyclohexanol]",inhibition at 10 µM,60%
"OC1(c2cccc(Cl)c2Cl)CCCC1CN1CCCC1 (stereo not shown) [1-(2,3-Dichloro-phenyl)-2-pyrrolidin-1-ylmethyl-cyclopentanol]",inhibition at 10 µM,53%
"OC1(c2ccc(Cl)cc2Cl)CCCCCC1CN1CCCC1 (stereo not shown) [1-(2,4-Dichloro-phenyl)-2-pyrrolidin-1-ylmethyl-cycloheptanol]",inhibition at 10 µM,55%
OC1(CCCc2ccccc2)CCCCCC1CN1CCCC1 (stereo not shown) [1-(3-Phenyl-propyl)-2-pyrrolidin-1-ylmethyl-cycloheptanol],inhibition at 10 µM,63%
OC1(CCCc2ccccc2)CCCC1CN1CCCC1 (stereo not shown) [1-(3-Phenyl-propyl)-2-pyrrolidin-1-ylmethyl-cyclopentanol],inhibition at 10 µM,65%
OC1(c2ccc(Cl)cc2)CCCC1CN1CCCC1 (stereo not shown) [1-(4-Chloro-phenyl)-2-pyrrolidin-1-ylmethyl-cyclopentanol],NA Uptake (% inhibition),68%
same,inhibition at 10 µM,75%
Cc1cc(C2(O)CCCCCC2CN2CCCC2)ccc1F (stereo not shown) [1-(4-Fluoro-3-methyl-phenyl)-2-pyrrolidin-1-ylmethyl-cycloheptanol],inhibition at 10 µM,83%
Cc1cc(C2(O)CCCC2CN2CCCC2)ccc1F (stereo not shown) [1-(4-Fluoro-3-methyl-phenyl)-2-pyrrolidin-1-ylmethyl-cyclopentanol],inhibition at 10 µM,59%
OC1(c2ccc(F)cc2)CCCCCC1CN1CCCC1 (stereo not shown) [1-(4-Fluoro-phenyl)-2-pyrrolidin-1-ylmethyl-cycloheptanol],inhibition at 10 µM,57%
COc1ccc(C2(O)CCCCCC2CN2CCCC2)cc1 (stereo not shown) [1-(4-Methoxy-phenyl)-2-pyrrolidin-1-ylmethyl-cycloheptanol],inhibition at 10 µM,69%
OC1(CCc2ccccc2)CCCCCC1CN1CCCC1 (stereo not shown) [1-Phenethyl-2-pyrrolidin-1-ylmethyl-cycloheptanol],inhibition at 10 µM,82%
OC1(CCc2ccccc2)CCCC1CN1CCCC1 (stereo not shown) [1-Phenethyl-2-pyrrolidin-1-ylmethyl-cyclopentanol],inhibition at 10 µM,59%
OC1(c2ccccc2)CCCCCC1CN1CCCC1 (stereo not shown) [1-Phenyl-2-pyrrolidin-1-ylmethyl-cycloheptanol],inhibition at 10 µM,56%
OC1(C#Cc2ccccc2)CCCC1CN1CCCC1 (stereo not shown) [1-Phenylethynyl-2-pyrrolidin-1-ylmethyl-cyclopentanol],NA Uptake (% inhibition),92%
OC1(CCCc2ccccc2)CCCCC1CN1CCCCCC1 (stereo not shown) [2-Azepan-1-ylmethyl-1-(3-phenyl-propyl)-cyclohexanol],inhibition at 10 µM,77%
OC1(CCCc2ccccc2)CCCC1CN1CCCCCC1 (stereo not shown) [2-Azepan-1-ylmethyl-1-(3-phenyl-propyl)-cyclopentanol],inhibition at 10 µM,59%
OC1(c2ccc(Cl)cc2)CCCC1CN1CCCCCC1 (stereo not shown) [2-Azepan-1-ylmethyl-1-(4-chloro-phenyl)-cyclopentanol],inhibition at 10 µM,80%
Cc1cc(C2(O)CCCCCC2CN2CCCCCC2)ccc1F (stereo not shown) [2-Azepan-1-ylmethyl-1-(4-fluoro-3-methyl-phenyl)-cycloheptanol],inhibition at 10 µM,63%
Cc1cc(C2(O)CCCCC2CN2CCCCCC2)ccc1F (stereo not shown) [2-Azepan-1-ylmethyl-1-(4-fluoro-3-methyl-phenyl)-cyclohexanol],inhibition at 10 µM,54%
Cc1cc(C2(O)CCCC2CN2CCCCCC2)ccc1F (stereo not shown) [2-Azepan-1-ylmethyl-1-(4-fluoro-3-methyl-phenyl)-cyclopentanol],inhibition at 10 µM,73%
OC1(c2ccc(F)cc2)CCCCC1CN1CCCCCC1 (stereo not shown) [2-Azepan-1-ylmethyl-1-(4-fluoro-phenyl)-cyclohexanol],inhibition at 10 µM,52%
COc1ccc(C2(O)CCCCCC2CN2CCCCCC2)cc1 (stereo not shown) [2-Azepan-1-ylmethyl-1-(4-methoxy-phenyl)-cycloheptanol],inhibition at 10 µM,58%
COc1ccc(C2(O)CCCCC2CN2CCCCCC2)cc1 (stereo not shown) [2-Azepan-1-ylmethyl-1-(4-methoxy-phenyl)-cyclohexanol],inhibition at 10 µM,58%
COc1ccc(C2(O)CCCC2CN2CCCCCC2)cc1 (stereo not shown) [2-Azepan-1-ylmethyl-1-(4-methoxy-phenyl)-cyclopentanol],inhibition at 10 µM,58%
OC1(Cc2ccccc2)CCCCCC1CN1CCCCCC1 (stereo not shown) [2-Azepan-1-ylmethyl-1-benzyl-cycloheptanol],inhibition at 10 µM,55%
Cc1cccc(C2(O)CCCC2CN2CCCCCC2)c1 (stereo not shown) [2-Azepan-1-ylmethyl-1-m-tolyl-cyclopentanol],inhibition at 10 µM,59%
Cc1ccc(C2(O)CCCCCC2CN2CCCCCC2)cc1 (stereo not shown) [2-Azepan-1-ylmethyl-1-p-tolyl-cycloheptanol],inhibition at 10 µM,58%
Cc1ccc(C2(O)CCCCC2CN2CCCCCC2)cc1 (stereo not shown) [2-Azepan-1-ylmethyl-1-p-tolyl-cyclohexanol],inhibition at 10 µM,64%
Cc1ccc(C2(O)CCCC2CN2CCCCCC2)cc1 (stereo not shown) [2-Azepan-1-ylmethyl-1-p-tolyl-cyclopentanol],inhibition at 10 µM,70%
OC1(CCc2ccccc2)CCCCCC1CN1CCCCCC1 (stereo not shown) [2-Azepan-1-ylmethyl-1-phenethyl-cycloheptanol],inhibition at 10 µM,87%
OC1(CCc2ccccc2)CCCCC1CN1CCCCCC1 (stereo not shown) [2-Azepan-1-ylmethyl-1-phenethyl-cyclohexanol],inhibition at 10 µM,70%
OC1(CCc2ccccc2)CCCC1CN1CCCCCC1 (stereo not shown) [2-Azepan-1-ylmethyl-1-phenethyl-cyclopentanol],inhibition at 10 µM,92%
OC1(c2ccccc2)CCCCCC1CN1CCCCCC1 (stereo not shown) [2-Azepan-1-ylmethyl-1-phenyl-cycloheptanol],inhibition at 10 µM,52%
OC1(C#Cc2ccccc2)CCCC1CN1CCCCCC1 (stereo not shown) [2-Azepan-1-ylmethyl-1-phenylethynyl-cyclopentanol],NA Uptake (% inhibition),99%
OC1(c2cccs2)CCCC1CN1CCCCCC1 (stereo not shown) [2-Azepan-1-ylmethyl-1-thiophen-2-yl-cyclopentanol],inhibition at 10 µM,51%
Cc1cccc(C2(O)CCCCCC2CN2CCCC2)c1 (stereo not shown) [2-Pyrrolidin-1-ylmethyl-1-m-tolyl-cycloheptanol],inhibition at 10 µM,67%
Cc1cccc(C2(O)CCCC2CN2CCCC2)c1 (stereo not shown) [2-Pyrrolidin-1-ylmethyl-1-m-tolyl-cyclopentanol],inhibition at 10 µM,52%
Cc1ccc(C2(O)CCCCCC2CN2CCCC2)cc1 (stereo not shown) [2-Pyrrolidin-1-ylmethyl-1-p-tolyl-cycloheptanol],inhibition at 10 µM,76%
Cc1ccc(C2(O)CCCCC2CN2CCCC2)cc1 (stereo not shown) [2-Pyrrolidin-1-ylmethyl-1-p-tolyl-cyclohexanol],inhibition at 10 µM,59%
Cc1ccc(C2(O)CCCC2CN2CCCC2)cc1 (stereo not shown) [2-Pyrrolidin-1-ylmethyl-1-p-tolyl-cyclopentanol],inhibition at 10 µM,78%
CCC(O)(C#Cc1ccccc1)C(C)CN1CCCC1 (stereo not shown) [3-Ethyl-4-methyl-1-phenyl-5-pyrrolidin-1-yl-pent-1-yn-3-ol],inhibition at 10 µM,76%

# Reference: patent publication US7507816B2, “Pharmaceutical preparations comprising substituted beta-aminoalcohols” (Gruenenthal GmbH, priority 2001, dated 2009)
